Measured values published in publication PMC10041525, “New Dual Inhibitors of Bacterial Topoisomerases with Broad-Spectrum Antibacterial Activity and In Vivo Efficacy against Vancomycin-Intermediate Staphylococcus aureus” (Journal of Medicinal Chemistry, 2023).
Like-named read-outs stand apart in the source and are kept apart here.

Legend:
Assay type in all cases: cell-based
[1] = system: 3 sensitive and 7 MDR A. baumannii clinical isolates; assay: MIC, Hungarian clinical isolates and controls (384-well); settings: n=10
[2] = system: 100 A. baumannii strains (50 MDR, 50 non-MDR); assay: MIC broth microdilution at IHMA Europe, panel of 100 strains; settings: for MIC / MIC50 / MIC90: Acinetobacter baumannii; for MIC50: read-out: MIC 50; for MIC90: read-out: MIC 90
E. coli ATCC 25922 = assay: IHMA QC MIC; settings: Escherichia coli, ATCC25922; read-out: MIC (QC, repeated tests)

C[C@@H](O)[C@H]1C(=O)N2C(C(=O)O)=C(S[C@@H]3CN[C@H](C(=O)N(C)C)C3)[C@H](C)[C@H]12 [Meropenem, meropenem]
0.25 µg/mL: MIC ([2]; A. baumannii IHMA 1769393, Lithuania 2018, Non-MDR, read-out: MIC) | MIC ([2]; A. baumannii IHMA 1769910, Israel 2018, Non-MDR, read-out: MIC) | MIC ([2]; A. baumannii IHMA 1795669, Tunisia 2018, Non-MDR, read-out: MIC) | MIC ([2]; A. baumannii IHMA 1821468, South Africa 2018, Non-MDR, read-out: MIC) | MIC ([2]; A. baumannii IHMA 1857118, Slovenia 2018, Non-MDR, read-out: MIC) | MIC ([2]; A. baumannii IHMA 1870054, United States 2018, Non-MDR, read-out: MIC) | MIC ([2]; A. baumannii IHMA 1884990, Germany 2018, Non-MDR, read-out: MIC) | MIC ([2]; A. baumannii IHMA 1913773, Kenya 2018, Non-MDR, read-out: MIC) | MIC ([2]; A. baumannii IHMA 1957343, Portugal 2019, Non-MDR, read-out: MIC) | MIC ([2]; A. baumannii IHMA 1967860, Spain 2019, Non-MDR, read-out: MIC) | MIC ([2]; A. baumannii IHMA 1975075, Israel 2019, Non-MDR, read-out: MIC) | MIC ([2]; A. baumannii IHMA 1986678, Turkey 2019, Non-MDR, read-out: MIC) | MIC ([2]; A. baumannii IHMA 1995161, Czech Republic 2019, Non-MDR, read-out: MIC) | MIC ([2]; A. baumannii IHMA 1999178, Belgium 2019, Non-MDR, read-out: MIC) | MIC ([2]; A. baumannii IHMA 2014367, Jordan 2019, Non-MDR, read-out: MIC) | MIC ([2]; A. baumannii IHMA 2034657, Tunisia 2019, Non-MDR, read-out: MIC) | MIC ([2]; A. baumannii IHMA 2035134, Serbia 2019, Non-MDR, read-out: MIC) | MIC ([2]; A. baumannii IHMA 2099294, United Kingdom 2019, Non-MDR, read-out: MIC) | MIC ([2]; A. baumannii IHMA 2157614, Australia 2020, Non-MDR, read-out: MIC) | MIC ([2]; A. baumannii IHMA 2180134, Malaysia 2020, Non-MDR, read-out: MIC) | MIC ([2]; A. baumannii IHMA 2215307, Hong Kong 2020, Non-MDR, read-out: MIC) | MIC ([2]; A. baumannii IHMA 2233548, Kazakhstan 2020, Non-MDR, read-out: MIC) | MIC ([2]; A. baumannii IHMA 2275237, Chile 2020, Non-MDR, read-out: MIC) | MIC50 ([2]; non-MDR n = 50) | MIC90 ([2]; non-MDR n = 50)
1 µg/mL: MIC ([2]; A. baumannii IHMA 2014931, South Africa 2019, Non-MDR, read-out: MIC) | MIC ([2]; A. baumannii IHMA 2224303, Panama 2020, Non-MDR, read-out: MIC) | MIC50 ([2]; all isolates n = 100) | MIC ([2]; non-MDR n = 50, read-out: MAX (maximum MIC))
16 µg/mL: MIC ([2]; A. baumannii IHMA 2154584, Israel 2020, MDR, read-out: MIC) | MIC ([2]; A. baumannii IHMA 2155340, Kenya 2020, MDR, read-out: MIC) | MIC ([2]; A. baumannii IHMA 2205144, Korea, South 2020, MDR, read-out: MIC) | MIC ([2]; MDR n = 50, read-out: MIN (minimum MIC))
> 16 µg/mL: MIC ([2]; A. baumannii IHMA 1769782, Israel 2018, MDR, read-out: MIC) | MIC ([2]; A. baumannii IHMA 1791877, Israel 2018, MDR, read-out: MIC) | MIC ([2]; A. baumannii IHMA 1792961, Jordan 2018, MDR, read-out: MIC) | MIC ([2]; A. baumannii IHMA 1814276, Lebanon 2018, MDR, read-out: MIC) | MIC ([2]; A. baumannii IHMA 1815198, Kuwait 2018, MDR, read-out: MIC) | MIC ([2]; A. baumannii IHMA 1815856, Israel 2018, MDR, read-out: MIC) | MIC ([2]; A. baumannii IHMA 1849819, Kuwait 2018, MDR, read-out: MIC) | MIC ([2]; A. baumannii IHMA 1926288, Qatar 2018, MDR, read-out: MIC) | MIC ([2]; A. baumannii IHMA 1963732, Turkey 2019, MDR, read-out: MIC) | MIC ([2]; A. baumannii IHMA 1971673, Latvia 2019, MDR, read-out: MIC) | MIC ([2]; A. baumannii IHMA 1983151, Greece 2019, MDR, read-out: MIC) | MIC ([2]; A. baumannii IHMA 1984665, Lithuania 2019, MDR, read-out: MIC) | MIC ([2]; A. baumannii IHMA 1986738, Turkey 2019, MDR, read-out: MIC) | MIC ([2]; A. baumannii IHMA 1987162, Croatia 2019, MDR, read-out: MIC) | MIC ([2]; A. baumannii IHMA 1993615, Turkey 2019, MDR, read-out: MIC) | MIC ([2]; A. baumannii IHMA 1994284, Italy 2019, MDR, read-out: MIC) | MIC ([2]; A. baumannii IHMA 2003279, Turkey 2019, MDR, read-out: MIC) | MIC ([2]; A. baumannii IHMA 2020360, Croatia 2019, MDR, read-out: MIC) | MIC ([2]; A. baumannii IHMA 2031524, Greece 2019, MDR, read-out: MIC) | MIC ([2]; A. baumannii IHMA 2035089, Serbia 2019, MDR, read-out: MIC) | MIC ([2]; A. baumannii IHMA 2038976, Hungary 2019, MDR, read-out: MIC) | MIC ([2]; A. baumannii IHMA 2051503, Serbia 2019, MDR, read-out: MIC) | MIC ([2]; A. baumannii IHMA 2156634, Turkey 2020, MDR, read-out: MIC) | MIC ([2]; A. baumannii IHMA 2156709, Turkey 2020, MDR, read-out: MIC) | MIC ([2]; A. baumannii IHMA 2177232, Lithuania 2020, MDR, read-out: MIC) | MIC ([2]; A. baumannii IHMA 2177489, Lithuania 2020, MDR, read-out: MIC) | MIC ([2]; A. baumannii IHMA 2180142, Malaysia 2020, MDR, read-out: MIC) | MIC ([2]; A. baumannii IHMA 2181370, Morocco 2020, MDR, read-out: MIC) | MIC ([2]; A. baumannii IHMA 2183729, Argentina 2020, MDR, read-out: MIC) | MIC ([2]; A. baumannii IHMA 2193375, Venezuela 2020, MDR, read-out: MIC) | MIC ([2]; A. baumannii IHMA 2193607, Venezuela 2020, MDR, read-out: MIC) | MIC ([2]; A. baumannii IHMA 2195460, Italy 2020, MDR, read-out: MIC) | MIC ([2]; A. baumannii IHMA 2196914, South Africa 2020, MDR, read-out: MIC) | MIC ([2]; A. baumannii IHMA 2196959, South Africa 2020, MDR, read-out: MIC) | MIC ([2]; A. baumannii IHMA 2203763, Spain 2020, MDR, read-out: MIC) | MIC ([2]; A. baumannii IHMA 2206459, Taiwan 2020, MDR, read-out: MIC) | MIC ([2]; A. baumannii IHMA 2216586, Taiwan 2020, MDR, read-out: MIC) | MIC ([2]; A. baumannii IHMA 2224017, Panama 2020, MDR, read-out: MIC) | MIC ([2]; A. baumannii IHMA 2231797, Greece 2020, MDR, read-out: MIC) | MIC ([2]; A. baumannii IHMA 2233099, Guatemala 2020, MDR, read-out: MIC) | MIC ([2]; A. baumannii IHMA 2233430, Kazakhstan 2020, MDR, read-out: MIC) | MIC ([2]; A. baumannii IHMA 2238964, Thailand 2020, MDR, read-out: MIC) | MIC ([2]; A. baumannii IHMA 2261047, Belgium 2020, MDR, read-out: MIC) | MIC ([2]; A. baumannii IHMA 2274234, South Africa 2020, MDR, read-out: MIC) | MIC ([2]; A. baumannii IHMA 2274364, South Africa 2020, MDR, read-out: MIC) | MIC ([2]; A. baumannii IHMA 2275751, Jordan 2020, MDR, read-out: MIC) | MIC ([2]; A. baumannii IHMA 2316205, United States 2020, MDR, read-out: MIC) | MIC ([2]; MDR n = 50, read-out: MAX (maximum MIC; all strains inhibited)) | MIC50 ([2]; MDR n = 50) | MIC90 ([2]; MDR n = 50) | MIC ([2]; all isolates n = 100, read-out: MAX (maximum MIC; all strains inhibited)) | MIC90 ([2]; all isolates n = 100)
30%: Cumulative % at MIC ([1]; MIC 1 µg/mL)
0.5 µg/mL: MIC ([2]; A. baumannii IHMA 1830924, United Kingdom 2018, Non-MDR, read-out: MIC) | MIC ([2]; A. baumannii IHMA 1977077, Kuwait 2019, Non-MDR, read-out: MIC) | MIC ([2]; A. baumannii IHMA 2212575, Hungary 2020, Non-MDR, read-out: MIC)
0%: Percentage I ([2]; MDR n = 50) | Percentage S ([2]; MDR n = 50) | Percentage I ([2]; all n = 100, CLSI breakpoints) | Percentage I ([2]; non-MDR n = 50) | Percentage R ([2]; non-MDR n = 50)
0.12 µg/mL: MIC ([2]; A. baumannii IHMA 1790317, Czech Republic 2018, Non-MDR, read-out: MIC) | MIC ([2]; A. baumannii IHMA 1829500, Georgia 2018, Non-MDR, read-out: MIC) | MIC ([2]; A. baumannii IHMA 1849829, Kuwait 2018, Non-MDR, read-out: MIC) | MIC ([2]; A. baumannii IHMA 1863631, France 2018, Non-MDR, read-out: MIC) | MIC ([2]; A. baumannii IHMA 1884428, Italy 2018, Non-MDR, read-out: MIC) | MIC ([2]; A. baumannii IHMA 1900538, Turkey 2018, Non-MDR, read-out: MIC) | MIC ([2]; A. baumannii IHMA 1997936, Morocco 2019, Non-MDR, read-out: MIC) | MIC ([2]; A. baumannii IHMA 2019315, Romania 2019, Non-MDR, read-out: MIC) | MIC ([2]; A. baumannii IHMA 2031511, Greece 2019, Non-MDR, read-out: MIC) | MIC ([2]; A. baumannii IHMA 2058329, Slovenia 2019, Non-MDR, read-out: MIC) | MIC ([2]; A. baumannii IHMA 2065587, France 2019, Non-MDR, read-out: MIC) | MIC ([2]; A. baumannii IHMA 2129256, Qatar 2019, Non-MDR, read-out: MIC) | MIC ([2]; A. baumannii IHMA 2183849, Argentina 2020, Non-MDR, read-out: MIC) | MIC ([2]; A. baumannii IHMA 2184382, Japan 2020, Non-MDR, read-out: MIC) | MIC ([2]; A. baumannii IHMA 2193485, Venezuela 2020, Non-MDR, read-out: MIC) | MIC ([2]; A. baumannii IHMA 2206507, Taiwan 2020, Non-MDR, read-out: MIC) | MIC ([2]; A. baumannii IHMA 2223200, Colombia 2020, Non-MDR, read-out: MIC) | MIC ([2]; A. baumannii IHMA 2239052, Thailand 2020, Non-MDR, read-out: MIC) | MIC ([2]; A. baumannii IHMA 2261633, Canada 2020, Non-MDR, read-out: MIC)
50%: Percentage R ([2]; all n = 100, CLSI breakpoints) | Percentage S ([2]; all n = 100, CLSI breakpoints)
10%: Cumulative % at MIC ([1]; MIC […])
≤ 0.06 µg/mL: MIC ([2]; A. baumannii IHMA 1790916, Romania 2018, Non-MDR, read-out: MIC) | MIC ([2]; A. baumannii IHMA 1926285, Qatar 2018, Non-MDR, read-out: MIC) | MIC ([2]; A. baumannii IHMA 2178574, Ukraine 2020, Non-MDR, read-out: MIC) | MIC ([2]; all isolates n = 100, read-out: MIN (minimum MIC)) | MIC ([2]; non-MDR n = 50, read-out: MIN (minimum MIC)) | MIC (E. coli ATCC 25922)
100%: Cumulative % at MIC ([1]; MIC 64 µg/mL) | Percentage R ([2]; MDR n = 50) | Percentage S ([2]; non-MDR n = 50)
